Data taken from ChEMBL document CHEMBL4651402, “Screening of ~5500 FDA-approved drugs and clinical candidates for anti-SARS-CoV-2 activity” (2021).

System: SARS-CoV-2
Test: microbe, parasite or virus in culture
Settings: Severe acute respiratory syndrome coronavirus 2, Vero C1008, 48 h

| Compound | IC50 [µM] | IC50 (read-out: pIC50 (converted)) [µM] |
| --- | --- | --- |
| CC(Oc1c(Cl)cccc1Cl)C1=NCCN1 (stereo not drawn) [LOFEXIDINE] | > 20 | > 20 |
| O=C1CN=C(c2ccccc2)c2cc(Cl)ccc2N1CC(F)(F)F [HALAZEPAM] | > 20 | > 20 |
| COCc1c(C(C)C)nc(C(C)C)c(/C=C/[C@@H](O)C[C@@H](O)CC(=O)O)c1-c1ccc(F)cc1 [CERIVASTATIN] | > 20 | > 20 |
| CC(=O)N[C@@H](C=O)[C@@H](O)[C@H](O)[C@H](O)CO | > 20 | > 20 |
| COc1ccccc1N1CCN(CCn2c(=O)[nH]c3ccccc3c2=O)CC1 | > 20 | > 20 |
| CC(C)C(C)/C=C/C(C)C1CCC2C3=CC=C4CC(O)CCC4(C)C3CCC21C (stereo not drawn) | > 20 | > 20 |
| CC(=C(CCO)SSCC1CCCO1)N(C=O)Cc1cnc(C)nc1N (stereo not drawn) | > 20 | > 20 |
| COc1ccc2c(c1OC)C13CCN(C)C(C2)C1(O)CCC(O)C3 (stereo not drawn) | > 20 | > 20 |
| C[Si](C)(C)c1cccc(C(=O)C(F)(F)F)c1 | > 20 | > 20 |
| O[C@H]1[C@H](O)[C@@H](O)O[C@H]2COC(c3ccccc3)O[C@H]12 (stereo partly drawn) | > 20 | > 20 |
| O=C(N[C@H]1CN2CCC1CC2)c1ccc(Cl)cc1 [PNU-282987] | > 20 | > 20 |
| CCN(CC)CCOC(=O)C1(C2CCCCC2)CCCCC1 [DICYCLOMINE] | > 20 | > 20 |
| NC1(C(=O)O)CCCC1 [CYCLOLEUCINE] | > 20 | > 20 |
| CC(=O)[C@@]1(O)CCC2C3C[C@H](C)C4=CC(=O)CCC4(C)C3CCC21C (stereo partly drawn) | > 20 | > 20 |
| CCOCCOc1ccccc1C(N)=O [ETOSALAMIDE] | > 20 | > 20 |
| Cc1cccc(C)c1NC(=O)C1(N(C)C)CCN([C@H]2CCCC[C@@H]2O)CC1 | > 20 | > 20 |
| CC(=O)OCC(=O)[C@@]1(OC(C)=O)[C@@H](C)C[C@H]2[C@@H]3C[C@H](F)C4=CC(=O)C=C[C@]4(C)[C@@]3(F)[C@@H](O)C[C@@]21C [DIFLORASONE DIACETATE] | > 20 | > 20 |
| O=C(O)Cc1ccccc1 [PHENYLACETIC ACID] | > 20 | > 20 |
| CC(C)C[C@H](NC(=O)N1CCCCCC1)C(=O)N[C@H](Cc1cn(C)c2ccccc12)C(=O)N[C@H](Cc1ccccn1)C(=O)O | > 20 | > 20 |
| O=C(O[C@@H]1Cc2c(O)cc(O)cc2O[C@@H]1c1cc(O)c(=O)c2c(O)c(O)cc([C@H]3Oc4cc(O)cc(O)c4C[C@H]3OC(=O)c3cc(O)c(O)c(O)c3)c2c1)c1cc(O)c(O)c(O)c1 [THEAFLAVIN DIGALLATE] | > 20 | > 20 |
| CCN(CC)CCOC(=O)C1(c2ccc([N+](=O)[O-])cc2)CCCC1 | > 20 | > 20 |
| CC(C)=CCC/C(C)=C/CC1=C(C)C(=O)c2ccccc2C1=O [MENAQUINONE-2] | > 20 | > 20 |
| CCN(Cc1ccncc1)C(=O)C(CO)c1ccccc1 (stereo not drawn) [TROPICAMIDE] | > 20 | > 20 |

| Compound | IC50 [µM] | IC50 (read-out: pIC50 (converted)) [µM] |
| --- | --- | --- |
| O=[N+]([O-])c1ccc(NN=C(c2ccc(O)cc2)c2ccc(O)cc2)c([N+](=O)[O-])c1 | > 20 | > 20 |
| OC[C@H]1O[C@@H](O[C@@H]2[C@@H](CO)O[C@](O)(CO)[C@H]2O)[C@H](O)[C@@H](O)[C@H]1O [LACTULOSE] | > 20 | > 20 |
| c1ccc2[nH]c(-c3nc4ccccc4[nH]3)nc2c1 | > 20 | > 20 |
| Cn1c(=O)[nH]c2ncn(C)c2c1=O [PARAXANTHINE] | > 20 | > 20 |
| CC(=O)Oc1cc(C)c(OC(C)=O)c2ccccc12 [ACETOMENAPHTHONE] | > 20 | > 20 |
| CC(C)C[C@H]1C(=O)N2CCC[C@H]2[C@]2(O)O[C@](NC(=O)[C@@H]3C=C4c5cccc6[nH]c(Br)c(c56)CC4N(C)C3)(C(C)C)C(=O)N12 (stereo partly drawn) | > 20 | > 20 |
| N[C@@H](Cc1cc(Br)c(O)c(Br)c1)C(=O)O [DIBROMOTYROSINE] | > 20 | > 20 |
| CC[C@H]1OC(=O)[C@H](C)[C@@H](O[C@H]2C[C@@](C)(OC)[C@@H](O)[C@H](C)O2)[C@H](C)[C@@H](O[C@@H]2O[C@H](C)C[C@H](N(C)C)[C@H]2O)[C@](C)(O)C[C@@H](C)[C@@H]2N[C@@H](COCCOC)O[C@H]([C@H]2C)[C@]1(C)O [DIRITHROMYCIN] | > 20 | > 20 |
| CC1=C(O)C(=O)C=C2C1=CC=C1C3(C)CC[C@@]4(C)CC[C@@](C)(C(=O)O)C[C@H]4[C@]3(C)CC[C@@]21C (stereo partly drawn) | > 20 | > 20 |
| CC[C@H]1OC(=O)[C@H](C)[C@@H](O[C@H]2C[C@@](C)(OC)[C@@H](O)[C@H](C)O2)[C@H](C)[C@@H](O[C@@H]2O[C@H](C)C[C@H](N(C)C)[C@H]2OC(C)=O)[C@](C)(O)C[C@@H](C)C(=O)[C@H](C)[C@@H](O)[C@]1(C)O [2'-O-ACETYLERYTHROMYCIN A] | > 20 | > 20 |
| N=C(N)NCc1cccc(I)c1 [IOBENGUANE] | > 20 | > 20 |
| CC(N)C(=O)c1ccccc1 (stereo not drawn) [DEALKYLATED DIETHYLPROPION] | > 20 | > 20 |
| COc1cc(C(=O)NC2CCCNC2)cc(OC)c1OC (stereo not drawn) [TROXIPIDE] | > 20 | > 20 |
| CCOc1ccc(NC(=O)C(C)O)cc1 (stereo not drawn) | > 20 | > 20 |
| CC1CC(OC(=O)C(O)c2ccccc2)CC(C)(C)N1C (stereo not drawn) [EUCATROPINE] | > 20 | > 20 |
| CC(C)N1CCN(c2ccc(Nc3ncc4cc5n(c4n3)C3(CCCCC3)CNC5=O)nc2)CC1 [LEROCICLIB] | > 20 | > 20 |
| CN(C)CCCN1c2ccccc2Sc2ccc(Cl)cc21 [CHLORPROMAZINE] | > 20 | > 20 |
| NC(=O)OCC(O)c1ccccc1 (stereo not drawn) [STYRAMATE] | > 20 | > 20 |
| CC1(C(=O)O)CCC2(C)CCC3(C)C(=CC(=O)C4C5(C)CCC(O)C(C)(C)C5CCC43C)C2C1 (stereo not drawn) | > 20 | > 20 |
| CC[C@@]1(O)C(=O)OCc2c1cc1n(c2=O)Cc2cc3ccccc3nc2-1 [CAMPTOTHECIN] | > 20 | > 20 |
| CCCCCC(C)(O)/C=C/C1CCC(=O)C1CCCCCCC(=O)O (stereo not drawn) | > 20 | > 20 |
| C#C[C@]1(O)CC[C@H]2[C@@H]3CC[C@H]4Cc5nn(S(C)(=O)=O)cc5C[C@]4(C)[C@H]3CC[C@@]21C [ZANOTERONE] | > 20 | > 20 |
| CC(C)=CCC/C(C)=C/CC/C(C)=C/CSc1ccccc1C(=O)O [SALIRASIB] | > 20 | > 20 |

| Compound | IC50 [µM] | IC50 (read-out: pIC50 (converted)) [µM] |
| --- | --- | --- |
| COc1ccc(OC)c(C(O)CNC(=O)CN)c1 (stereo not drawn) [MIDODRINE] | > 20 | > 20 |
| CC(C(=O)O)c1ccc(N2Cc3ccccc3C2=O)cc1 (stereo not drawn) [INDOPROFEN] | > 20 | > 20 |
| COC(=O)Nc1nc2cc(C(=O)c3ccc(F)cc3)ccc2[nH]1 [FLUBENDAZOLE] | > 20 | > 20 |
| Oc1ccc2[nH]cc(CCCCN3CC=C(c4ccccc4)CC3)c2c1 [ROXINDOLE] | > 20 | > 20 |
| CN(C(=O)CO/N=C(/c1ccccc1)c1ccc2c(c1)CN1CC(=O)NC1=N2)C1CCCCC1 | > 20 | > 20 |
| CC[C@]1(c2ccccc2)NC(=O)N(C)C1=O | > 20 | > 20 |
| [2H]C1([2H])COc2ccc(Cc3cc([C@@H]4O[C@H](CO)[C@@H](O)[C@H](O)[C@H]4O)ccc3CC)cc2O1 | > 20 | > 20 |
| CC(=O)NC(CCC(=O)O)C(=O)O (stereo not drawn) [ACEGLUMATE] | > 20 | > 20 |
| COc1ccc2c(c1)[C@H]1C[C@@]1(C(=O)N1C3CCC1CN(C)C3)Cn1c-2c(C2CCCCC2)c2ccc(C(=O)NS(=O)(=O)N(C)C)cc21 | > 20 | > 20 |
| COc1cc(Cc2cnc(N)nc2N)cc(OC)c1SC [METIOPRIM] | > 20 | > 20 |
| CCOC(=O)C1=C[C@@H](OC(CC)CC)[C@H](NC(C)=O)[C@@H](N)C1 [OSELTAMIVIR] | > 20 | > 20 |
| NS(=O)(=O)c1cc2c(cc1Cl)NC(c1ccccc1)NC2=O (stereo not drawn) [FENQUIZONE] | > 20 | > 20 |
| COc1cc(C(=O)N2CCOCC2)cc(OC)c1OC [TRIMETOZINE] | > 20 | > 20 |
| OCc1ccccc1O[C@@H]1O[C@H](CO)[C@@H](O)[C@H](O)[C@H]1O [SALICIN] | > 20 | > 20 |
| CCC[C@@H]1C[C@@H](C(=O)N[C@@H](C(C)O)[C@H]2O[C@H](SC)[C@H](O)[C@@H](O)[C@H]2O)N(C)C1 (stereo partly drawn) | > 20 | > 20 |
| C[N+]1(CC2CC2)CC[C@]23c4c5ccc(O)c4O[C@H]2C(=O)CC[C@@]3(O)[C@H]1C5 (stereo partly drawn) [METHYLNALTREXONE] | > 20 | > 20 |
| CC[C@@H]1C2C[C@H](O)CC[C@]2(C)[C@H]2CC[C@]3(C)[C@@H]([C@H](C)CCC(=O)O)CC[C@H]3[C@@H]2[C@@H]1O (stereo partly drawn) | > 20 | > 20 |
| CN(c1nc2ccccc2s1)C1CCN(CC(O)COc2ccc(F)cc2)CC1 (stereo not drawn) [SABELUZOLE] | > 20 | > 20 |
| Cc1nc2c(C)cccn2c(=O)c1CCN1CCC(c2noc3cc(F)ccc23)CC1 [OCAPERIDONE] | > 20 | > 20 |
| Nc1cc(C(Cl)=C(Cl)Cl)c(S(N)(=O)=O)cc1S(N)(=O)=O [CLORSULON] | > 20 | > 20 |
| CC(=O)N(CC(O)CN(C(C)=O)c1c(I)c(C(=O)NCC(O)CO)c(I)c(C(=O)NCC(O)CO)c1I)c1c(I)c(C(=O)NCC(O)CO)c(I)c(C(=O)NCC(O)CO)c1I (stereo not drawn) [IODIXANOL] | > 20 | > 20 |
| Cc1c(F)cc(C(=O)NC2CC2)cc1-c1ccc(C(=O)NCC(C)(C)C)cn1 [LOSMAPIMOD] | > 20 | > 20 |
| Nc1ncn([C@@H]2O[C@H](CO)[C@@H](O)[C@H]2O)c(=O)n1 [AZACITIDINE] | > 20 | > 20 |
